Experiment: Clinical study: effect of i.v. administration of ivabradine hydrochloride on heart rate in healthy volunteers
Assay type: in vivo
Conditions: i.v. bolus of ivabradine hydrochloride solution containing 16 mg ivabradine base, resting heart rate (lying position) at T0+30 min, vs placebo control group
Procedure: Clinical Study. Effect of i.v. Administration of Ivabradine Hydrochloride on Heart Rate in Healthy Volunteers.
Resting heart rate (in a lying position) is measured at T0. The subjects are then given an i.v. bolus of a solution of ivabradine hydrochloride containing 16 mg of ivabradine base (treated group, n=8) or of placebo (control group, n=2). The resting heart rate (in a lying position) is again measured at T0+30 min.

Q: With `COc1cc2c(cc1OC)CC(=O)N(CCCN(C)C[C@H]1Cc3cc(OC)c(OC)cc31)CC2` [ivabradine] as the compound, how does the “heart rate lower than the heart rate in the control group” value read?
A: 16%

From US20160361444A1, “USE OF IVABRADINE AS DIAGNOSTIC AGENT IN THE METHOD OF CORONARY ANGIOGRAPHY BY MULTISLICE COMPUTED TOMOGRAPHY” (LES LABORATOIRES SERVIER, priority 2008, published 2016)
